Test results published in the CheMixHub viscosity set.
± gives the uncertainty stated by the source.

Test: xn = mol fraction of the nth substance listed
Settings: 101 kPa

CC(=O)N1CCOCC1 + CC(C)O
viscosity (293.15 K, x1 = 0.0522): 3.709 ± 0.083 mPa·s
viscosity (293.15 K, x1 = 0.1274): 4.822 ± 0.11 mPa·s
viscosity (293.15 K, x1 = 0.2153): 6.051 ± 0.13 mPa·s
viscosity (293.15 K, x1 = 0.2813): 6.792 ± 0.14 mPa·s
viscosity (293.15 K, x1 = 0.3169): 7.055 ± 0.14 mPa·s
viscosity (293.15 K, x1 = 0.3909): 7.575 ± 0.15 mPa·s
viscosity (293.15 K, x1 = 0.4569): 7.956 ± 0.16 mPa·s
viscosity (293.15 K, x1 = 0.4999): 8.044 ± 0.16 mPa·s
viscosity (293.15 K, x1 = 0.5444): 8.301 ± 0.17 mPa·s
viscosity (293.15 K, x1 = 0.6113): 8.421 ± 0.17 mPa·s
viscosity (293.15 K, x1 = 0.6342): 8.356 ± 0.17 mPa·s
viscosity (293.15 K, x1 = 0.6888): 8.479 ± 0.17 mPa·s
viscosity (293.15 K, x1 = 0.7522): 8.573 ± 0.18 mPa·s
viscosity (293.15 K, x1 = 0.7976): 8.575 ± 0.18 mPa·s
viscosity (293.15 K, x1 = 0.8555): 8.612 ± 0.18 mPa·s
viscosity (293.15 K, x1 = 0.9231): 8.559 ± 0.18 mPa·s
viscosity (293.15 K, x2 = 0.0188): 8.649 ± 0.19 mPa·s
viscosity (303.15 K, x1 = 0.0522): 2.981 ± 0.067 mPa·s
viscosity (303.15 K, x1 = 0.1274): 4.027 ± 0.09 mPa·s
viscosity (303.15 K, x1 = 0.2153): 5.18 ± 0.11 mPa·s
viscosity (303.15 K, x1 = 0.2813): 5.862 ± 0.12 mPa·s
viscosity (303.15 K, x1 = 0.3169): 6.069 ± 0.13 mPa·s
viscosity (303.15 K, x1 = 0.3909): 6.548 ± 0.14 mPa·s
viscosity (303.15 K, x1 = 0.4569): 6.872 ± 0.14 mPa·s
viscosity (303.15 K, x1 = 0.4999): 6.922 ± 0.14 mPa·s
viscosity (303.15 K, x1 = 0.5444): 7.14 ± 0.15 mPa·s
viscosity (303.15 K, x1 = 0.6113): 7.202 ± 0.15 mPa·s
viscosity (303.15 K, x1 = 0.6342): 7.116 ± 0.15 mPa·s
viscosity (303.15 K, x1 = 0.6888): 7.191 ± 0.15 mPa·s
viscosity (303.15 K, x1 = 0.7522): 7.229 ± 0.15 mPa·s
viscosity (303.15 K, x1 = 0.7976): 7.191 ± 0.15 mPa·s
viscosity (303.15 K, x1 = 0.8555): 7.176 ± 0.16 mPa·s
viscosity (303.15 K, x1 = 0.9231): 7.065 ± 0.15 mPa·s
viscosity (303.15 K, x2 = 0.0188): 7.104 ± 0.16 mPa·s
viscosity (313.15 K, x1 = 0.0522): 2.398 ± 0.055 mPa·s
viscosity (313.15 K, x1 = 0.1274): 3.33 ± 0.075 mPa·s
viscosity (313.15 K, x1 = 0.2153): 4.35 ± 0.097 mPa·s
viscosity (313.15 K, x1 = 0.2813): 4.934 ± 0.11 mPa·s
viscosity (313.15 K, x1 = 0.3169): 5.112 ± 0.11 mPa·s
viscosity (313.15 K, x1 = 0.3909): 5.454 ± 0.12 mPa·s
viscosity (313.15 K, x1 = 0.4569): 5.68 ± 0.12 mPa·s
viscosity (313.15 K, x1 = 0.4999): 5.666 ± 0.12 mPa·s
viscosity (313.15 K, x1 = 0.5444): 5.816 ± 0.13 mPa·s
viscosity (313.15 K, x1 = 0.6113): 5.778 ± 0.13 mPa·s
viscosity (313.15 K, x1 = 0.6342): 5.656 ± 0.13 mPa·s
viscosity (313.15 K, x1 = 0.6888): 5.651 ± 0.13 mPa·s
viscosity (313.15 K, x1 = 0.7522): 5.593 ± 0.13 mPa·s
viscosity (313.15 K, x1 = 0.7976): 5.487 ± 0.12 mPa·s
viscosity (313.15 K, x1 = 0.8555): 5.389 ± 0.12 mPa·s
viscosity (313.15 K, x1 = 0.9231): 5.172 ± 0.12 mPa·s
viscosity (313.15 K, x2 = 0.0188): 5.163 ± 0.12 mPa·s
viscosity (323.15 K, x1 = 0.0522): 2.058 ± 0.048 mPa·s
viscosity (323.15 K, x1 = 0.1274): 2.819 ± 0.064 mPa·s
viscosity (323.15 K, x1 = 0.2153): 3.754 ± 0.084 mPa·s
viscosity (323.15 K, x1 = 0.2813): 4.274 ± 0.096 mPa·s
viscosity (323.15 K, x1 = 0.3169): 4.418 ± 0.099 mPa·s
viscosity (323.15 K, x1 = 0.3909): 4.686 ± 0.11 mPa·s
viscosity (323.15 K, x1 = 0.4569): 4.85 ± 0.11 mPa·s
viscosity (323.15 K, x1 = 0.4999): 4.794 ± 0.11 mPa·s
viscosity (323.15 K, x1 = 0.5444): 4.903 ± 0.11 mPa·s
viscosity (323.15 K, x1 = 0.6113): 4.799 ± 0.11 mPa·s
viscosity (323.15 K, x1 = 0.6342): 4.656 ± 0.11 mPa·s
viscosity (323.15 K, x1 = 0.6888): 4.597 ± 0.11 mPa·s
viscosity (323.15 K, x1 = 0.7522): 4.478 ± 0.1 mPa·s
viscosity (323.15 K, x1 = 0.7976): 4.328 ± 0.1 mPa·s
viscosity (323.15 K, x1 = 0.8555): 4.174 ± 0.099 mPa·s
viscosity (323.15 K, x1 = 0.9231): 3.892 ± 0.093 mPa·s
viscosity (323.15 K, x2 = 0.0188): 3.893 ± 0.094 mPa·s
